Measured values published in patent US5401777A, “Use of preparations of curcuma plants” (priority 1992, dated 1995).

How the values were obtained:
[1] = test system: histamine-induced stomach ulcers; details: guinea pigs; Bhatia et al. 1964; cited from earlier work
[2] = test system: formation of peroxidized arachidonic acid products; assay: inhibition of Fe/ascorbate-induced formation of peroxidized arachidonic acid products in the cell-free system; assay type: biochemical
Source text: (d) the formation of peroxidized arachidonic acid products in the cell-free system with an IC50 of approx. 1 μmol/l.

[3] = test system: experimental stomach ulcers; details: rats; cited from earlier work
[4] = test system: stomach mucosa; details: oral, daily doses of 100 mg/kg over 6 days; Prasad et al. 1976; cited from earlier work

COc1cc(/C=C/C(=O)CC(=O)/C=C/c2ccc(O)c(OC)c2)ccc1O [curcumin]
protective effect against histamine-induced stomach ulcers [1]: did not find any protective effect
concentration in which the antioxidative effect is already achieved [2]: 1 μm
effect on experimental stomach ulcers [3]: does not cure
effect of high doses on the stomach mucosa [4]: damaged the stomach mucosa
